Test system: two different cell lines, respectively sensitive S and resistant R
Experiment: ratio of apoptotic cells as a function of NCS concentration, compared with irradiation dose
Assay type: cell-based
Conditions: concentration of 1 nM of neocarzinostatin
Procedure: FIG. 27 is a graph showing the change in the amount of apoptotic cells in a mixture as a function of the quantity of NCS in this mixture,
FIG. 28 is a graph showing the change in the number of apoptotic cells as a function of the irradiation dose received by an individual,
The substance used is for example neocarzinostatin (NCS). […] These graphs made it possible to determine in particular that a concentration of 1 nM of neocarzinostatin is equivalent to, that is to say produces the same effect as, an irradiation dose of 1.2 Gy. Several hair samplings are carried out on the same region of an individual, along with a plurality of blood samplings. Two of the samples are subjected to the action of NCS at a known dose, for example equivalent to 1 Gy, in reaction wells in a plate. Each sample can be treated and analysed, as described previously. One of the two samples is analysed immediately at the same time as a sample that has not received treatment, and the second is analysed after a given period Δt, for example 1 hour.

Question: neocarzinostatin was tested. Which “irradiation dose equivalent to (produces the same effect as) the neocarzinostatin concentration” value did it give?
Answer: 1.2 Gy

Source: US20160202234A1, “METHOD FOR EVALUATING, VIA BIODOSIMETRY, THE I[…] RECEIVED BY A PERSON SUBJECTED TO IONIZING RADIATION” (ACUBENS, priority 2013, published 2016)
